According to ChEMBL document CHEMBL4613209, “Quinolone hybrids and their anti-cancer activities: An overview” (Eur J Med Chem, 2019):
One block for each molecule: values may come before it.

Assays:
PANC-1 = test: Growth inhibition of human PANC1 cells after 48 hrs by SRB assay; type: functional; conditions: PANC-1, 48 h
MDA-MB-231 = test: Growth inhibition of human MDA-MB-231 cells after 48 hrs by SRB assay; type: functional; conditions: MDA-MB-231, 48 h
SiHa = test: Growth inhibition of human SiHa cells after 48 hrs by SRB assay; type: functional
Hep 3B2 [1] = test: Cytotoxicity against human Hep3B cells assessed as reduction in cell viability; type: functional, cell-based
CAPAN-1 [2] = test: Potency index, ratio of IC50 for doxorubicin to IC50 for test compound for cytotoxicity against human Capan1 cells assessed as reduction in cell viability; type: functional
Hep 3B2 [3] = test: Potency index, ratio of IC50 for doxorubicin to IC50 for test compound for cytotoxicity against human Hep3B cells assessed as reduction in cell viability; type: functional
HL-60 [4] = test: Cytotoxicity against human HL60 cells assessed as reduction in cell viability; type: functional, cell-based
CAPAN-1 [5] = test: Cytotoxicity against human Capan1 cells assessed as reduction in cell viability; type: functional, cell-based
HL-60 [6] = test: Potency index, ratio of IC50 for doxorubicin to IC50 for test compound for cytotoxicity against human HL60 cells assessed as reduction in cell viability; type: functional
Apoptosis regulator BAX = Apoptosis regulator BAX (Homo sapiens, UniProt Q07812); test: Activation of Bax in human SMMC7721 cells; type: cell-based, SMMC-7721
Sequence of Apoptosis regulator BAX (Q07812 whole entry): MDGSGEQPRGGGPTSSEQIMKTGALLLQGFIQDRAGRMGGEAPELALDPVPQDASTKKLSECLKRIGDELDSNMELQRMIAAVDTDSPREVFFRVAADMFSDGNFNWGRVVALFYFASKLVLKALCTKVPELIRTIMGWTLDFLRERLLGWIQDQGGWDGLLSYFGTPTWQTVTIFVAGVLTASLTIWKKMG

Hep 3B2 [7] = test: Antiproliferative activity against human Hep3B cells after 24 to 72 hrs by MTT assay; type: functional, cell-based
Caspase-3 = Caspase-3 (Homo sapiens, UniProt P42574); test: Activation of caspase 3 in human SMMC7721 cells; type: cell-based, SMMC-7721
Sequence of Caspase-3 (P42574 29-175 limits assumed): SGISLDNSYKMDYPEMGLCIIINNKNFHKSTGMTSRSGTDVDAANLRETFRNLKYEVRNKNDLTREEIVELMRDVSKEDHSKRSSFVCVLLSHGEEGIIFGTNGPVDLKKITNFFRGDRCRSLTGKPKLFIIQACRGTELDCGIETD
Sequence of Caspase-3 (P42574 176-277 limits assumed): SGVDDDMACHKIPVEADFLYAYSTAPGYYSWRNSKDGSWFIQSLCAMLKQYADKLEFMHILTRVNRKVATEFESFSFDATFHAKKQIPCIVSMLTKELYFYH

SMMC-7721 [8] = test: Antiproliferative activity against human SMMC7721 cells after 24 to 72 hrs by MTT assay; type: functional, cell-based
[9] = target: Cellular tumor antigen p53 (Homo sapiens, UniProt P04637); test: Activation of p53 in human SMMC7721 cells; type: cell-based, SMMC-7721
Sequence of Cellular tumor antigen p53 (P04637 whole entry): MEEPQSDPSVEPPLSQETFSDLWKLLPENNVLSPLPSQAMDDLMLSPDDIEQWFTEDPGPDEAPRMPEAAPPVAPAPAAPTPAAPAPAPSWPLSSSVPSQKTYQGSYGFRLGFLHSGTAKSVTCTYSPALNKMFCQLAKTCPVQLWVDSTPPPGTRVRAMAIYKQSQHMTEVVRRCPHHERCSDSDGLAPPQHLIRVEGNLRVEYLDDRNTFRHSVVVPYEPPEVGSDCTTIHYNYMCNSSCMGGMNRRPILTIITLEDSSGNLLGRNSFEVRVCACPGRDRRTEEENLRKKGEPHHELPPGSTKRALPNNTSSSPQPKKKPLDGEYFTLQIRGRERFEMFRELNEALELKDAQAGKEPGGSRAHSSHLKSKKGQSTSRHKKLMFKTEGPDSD

Caspase-9 = Caspase-9 (Homo sapiens, UniProt P55211); test: Activation of caspase 9 in human SMMC7721 cells; type: cell-based, SMMC-7721
Sequence of Caspase-9 (P55211 1-315 limits assumed): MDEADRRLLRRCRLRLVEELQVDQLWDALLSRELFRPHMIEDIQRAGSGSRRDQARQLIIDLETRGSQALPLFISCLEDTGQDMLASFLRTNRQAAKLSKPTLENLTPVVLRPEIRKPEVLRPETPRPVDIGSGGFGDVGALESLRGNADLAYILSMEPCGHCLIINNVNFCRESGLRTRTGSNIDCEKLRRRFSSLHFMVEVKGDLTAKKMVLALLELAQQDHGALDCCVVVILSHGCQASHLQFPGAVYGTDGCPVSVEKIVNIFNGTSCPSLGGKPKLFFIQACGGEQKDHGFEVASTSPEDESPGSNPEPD
Sequence of Caspase-9 (P55211 331-416 limits assumed): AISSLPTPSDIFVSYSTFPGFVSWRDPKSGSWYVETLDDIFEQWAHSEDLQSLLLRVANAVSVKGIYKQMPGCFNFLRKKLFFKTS

HL-60 [10] = test: Antiproliferative activity against human HL60 cells after 24 to 72 hrs by MTT assay; type: functional, cell-based
L1210 [11] = test: Antiproliferative activity against mouse L1210 cells after 24 to 72 hrs by MTT assay; type: functional, cell-based
HL-60 [12] = test: Cytotoxicity against human HL60 cells assessed as reduction in cell viability by MTT assay; type: functional, cell-based
L1210 [13] = test: Cytotoxicity against mouse L1210 cells assessed as reduction in cell viability by MTT assay; type: functional, cell-based
CHO = test: Cytotoxicity against CHO cells assessed as reduction in cell viability by MTT assay; type: cell-based; conditions: Cricetulus griseus
SMMC-7721 [14] = test: Cytotoxicity against human SMMC7721 cells assessed as reduction in cell viability by MTT assay; type: functional, cell-based
K562 [15] = test: Anticancer activity against human K562 cells after 48 to 72 hrs by MTT assay; type: functional, cell-based
Hep 3B2 [16] = test: Anticancer activity against human Hep3B cells after 48 to 72 hrs by MTT assay; type: functional, cell-based
HeLa [17] = test: Cytotoxicity against human HeLa cells assessed as reduction in cell viability after 24 to 72 hrs by MTT assay; type: functional, cell-based
L1210 [18] = test: Cytotoxicity against mouse L1210 cells assessed as reduction in cell viability after 24 to 72 hrs by MTT assay; type: functional, cell-based
Jurkat = test: Anticancer activity against human Jurkat cells after 48 to 72 hrs by MTT assay; type: functional, cell-based
SMMC-7721 [19] = test: Anticancer activity against human SMMC7721 cells after 48 to 72 hrs by MTT assay; type: functional, cell-based
HCT-116 [20] = test: Anticancer activity against human HCT116 cells after 48 to 72 hrs by MTT assay; type: functional, cell-based
A549 = test: Anticancer activity against human A549 cells by MTT assay; type: functional, cell-based
HepG2 [21] = test: Anticancer activity against human HepG2 cells by MTT assay; type: functional, cell-based
HL-60 [22] = test: Anticancer activity against human HL60 cells by MTT assay; type: functional, cell-based
HT-29 = test: Anticancer activity against human HT-29 cells by MTT assay; type: functional, cell-based
HeLa [23] = test: Anticancer activity against human HeLa cells by MTT assay; type: functional, cell-based
HepG2 [24] = test: Cytotoxicity against human HepG2 cells assessed as reduction in cell viability after 48 hrs by MTT assay; type: functional, cell-based; conditions: HepG2, 48 h
[25] = Cytotoxicity against human MGC832 cells assessed as reduction in cell viability after 48 hrs by MTT assay; type: functional, cell-based
HT-1080 = test: Cytotoxicity against human HT1080 cells assessed as reduction in cell viability; type: functional, cell-based
K562 [26] = test: Anticancer activity against human K562 cells; type: functional, cell-based
MCF7 = test: Cytotoxicity against human MCF7 cells assessed as reduction in cell viability by SRB assay; type: functional, cell-based
HCT-116 [27] = test: Cytotoxicity against human HCT116 cells assessed as reduction in cell viability by SRB assay; type: functional, cell-based

- GI50 (PANC-1): 0.06 to 2 µM
- GI50 (MDA-MB-231): 0.06 to 2 µM
Compound: CCn1cc(C(=O)O)c(=O)c2cnc(N3CCN(C(=O)CCSc4nnnn4-c4cc(OC)c(OC)c(OC)c4)CC3)nc21
- GI50 (SiHa): 0.06 to 2 µM

Compound: CN1CCN(c2cc3c(cc2F)c(=O)c(-c2nc4s/c(=C\c5ccc(S(N)(=O)=O)cc5)c(=O)n4n2)cn3C2CC2)CC1
- IC50 (Hep 3B2 [1]): 0.7 µM
- Ratio IC50 (CAPAN-1 [2]): 2.3 - 5.6
- Ratio IC50 (Hep 3B2 [3]): 2.3 - 5.6
- IC50 (HL-60 [4]): 1.5 µM
- IC50 (CAPAN-1 [5]): 0.3 µM
- Ratio IC50 (HL-60 [6]): 2.3 - 5.6

- IC50 (Apoptosis regulator BAX): 3 to 7.39 µM
- IC50 (Caspase-3): 3 to 7.39 µM
- IC50 (SMMC-7721 [8]): 1.4 to 52.3 µM
- IC50 [9]: 3 to 7.39 µM
- IC50 (Caspase-9): 3 to 7.39 µM
- IC50 (HL-60 [10]): 1.4 to 52.3 µM
- IC50 (L1210 [11]): 1.4 to 52.3 µM
Compound: O=C(N/N=C/c1ccc2c(c1)OCO2)c1cn(C2CC2)c2cc(N3CCNCC3)c(F)cc2c1=O
- IC50 (Hep 3B2 [7]): 1.4 to 52.3 µM

Compound: COc1ccc(-c2nnc(CSc3nnc(-c4cn(C5CC5)c5cc(N6CCN(C)CC6)c(F)cc5c4=O)o3)o2)cc1
- IC50 (HL-60 [12]): 1.1 to 2.8 µM
- IC50 (L1210 [13]): 1.1 to 2.8 µM
- IC50 (CHO): 1.1 to 2.8 µM
- IC50 (SMMC-7721 [14]): 1.1 to 2.8 µM

- IC50 (K562 [15]): < 10 µg/mL
Compound: C/C(=N\Nc1ccccc1)c1c(O)c2ccccc2n(-c2ccccc2)c1=O
- IC50 (Hep 3B2 [16]): < 10 µg/mL

Compound: CCOC(=O)c1cn(CC)c2c(ccc3n[se]nc32)c1=O
- IC50 (HeLa [17]): ≤ 100 µM
- IC50 (L1210 [18]): ≤ 100 µM

- IC50 (Jurkat): < 50 µM
- IC50 (SMMC-7721 [19]): < 50 µM
- IC50 (HCT-116 [20]): < 50 µM
Compound: COc1cc(/C=N/n2c(SCc3ccccc3)nnc2-c2cn(C3CC3)c3cc(N4CCNCC4)c(F)cc3c2=O)cc(OC)c1OC

- IC50 (A549): 13.6 to 66 µM
- IC50 (HepG2 [21]): 13.6 to 66 µM
- IC50 (HL-60 [22]): 13.6 to 66 µM
- IC50 (HT-29): 13.6 to 66 µM
- IC50 (HeLa [23]): 13.6 to 66 µM
Compound: CCOC(=O)c1cn(Cc2cn(-c3ccc(F)cc3)nn2)c2ccc(Cl)cc2c1=O

Compound: O=C(O)c1c(-c2ccc[nH]2)[nH]c2ccccc2c1=O [PENICINOLINE]
- IC50 (HepG2 [24]): 0.007 µM
- IC50 [25]: 0.091 µM

Compound: CC[C@H](CC[C@@H](C)[C@H]1CC[C@H]2[C@@H]3CC=C4C[C@@H](O)CC[C@]4(C)[C@H]3CC[C@]12C)C(C)C [BETA-SITOSTEROL]
- IC50 (HT-1080): 2.5 to 15.7 µM

- IC50 (K562 [26]): 76.8 µM
Compound: NC(=O)c1cn([C@@H]2O[C@H](CO)[C@@H](O)[C@H]2O)c2ccc(Oc3ccccc3)cc2c1=O

Compound: N#Cc1c(N)c2cc(-c3nc4ccccc4s3)ccc2[nH]c1=O
- IC50 (MCF7): 0.0748 µM
- IC50 (HCT-116 [27]): 0.0616 µM

- IC50 (A549): 13.1 to 70.2 µM
- IC50 (HepG2 [21]): 13.1 to 70.2 µM
- IC50 (HL-60 [22]): 13.1 to 70.2 µM
- IC50 (HT-29): 13.1 to 70.2 µM
- IC50 (HeLa [23]): 13.1 to 70.2 µM
Compound: CCOC(=O)c1cn(Cc2cn(-c3ccc(Cl)cc3)nn2)c2ccc(F)cc2c1=O
